PMC10879502, “Linking ATP and allosteric sites to achieve superadditive binding with bivalent EGFR kinase inhibitors” (Communications Chemistry, 2024)
Where “and” joins values, the source holds several entries; their conditions need not be identical. Identical values can stand only once. Like-named read-outs stand apart in the source and are kept apart here. One block for each compound: values may come before it.

Key:
[1] = system: EGFR phosphorylation (pY1068) in H1975 cells; assay: Western blot; assay type: cell-based, human
Description: H1975, H3255, H3255GR and HCC827 lung adenocarcinoma cells (obtained from Dr. Pasi Jänne in Dana-Farber Cancer Institute, 2022) were cultured in RPMI 1640 media (Corning, 1004-CV) supplemented with 10% FBS (Tissue Culture Biologicals, 35-010-CV) and 1% penicillin-streptomycin (P/S, Corning, 30-002-CI). All cell lines were tested negative for Mycoplasma using Myco-Sniff-Rapid™ Mycoplasma Luciferase Detection Kit Plus PCR Primer Set (MP biomedicals, 0930504-CF) and were passaged and/or used for no longer than 4 weeks for all experiments H1975 and HCC-827 cells were seeded in 6-well plates with 400,000 cells per well and incubated overnight. H3255 and H3255GR cells were seeded in 12-well plates with 200,000 cells per well and were grown to confluency after 48 h. Culture medium was removed, cells washed with PBS, and lysed with lysis buffer containing 5 M NaCl, 1 M TRIS pH 8.0, 10% SDS, 10% Triton X-100 and a tablet of protease and phosphatase inhibitor. Protein lysate concentration was analyzed using Pierce BCA kit (ThermoFisher, 23225). Protein samples (10 µg) were resolved on hand-cast Criterion Tris-HCl protein gels. Primary antibodies used; phospho-EGFR (Tyr1068; #2234, 1:1,000), EGFR (#4267; 1:1,000), phospho-AKT (Ser473; #4060, 1:1,000), AKT (#9272, 1:1,000), phospho-ERK1/2 (Thr202/Tyr204; #4370, 1:1,000), and ERK1/2 (#4695, 1:1,000) antibodies; were purchased from Cell Signaling Technology. Secondary Goat anti-rabbit IgG starbright blue 700 (Biorad, 64484700) and Anti-tubulin hFAB Rhodamine Tubulin (Bio-Rad, 64512248). Western blots were visualized with the ChemiDoc MP imager (Bio-Rad) utilizing the Image Lab Touch Software (version 2.4.0.03). All Western blot images are representatives of at least 3 independent replicate experiments.

[2] = system: Ba/F3 cells, L858R/T790M EGFR; assay: Ba/F3 resazurin antiproliferative assay; assay type: cell-based; conditions: Mus musculus, BaF3; Ba/F3, 72 h; read-out: EGFR EC50, LR/TM
Description: (§1) H1975 and HCC827 cells were obtained from the lab of Dr. Pasi Jänne (Dana-Farber Cancer Institute, 2022) cultured at 37 °C in RPMI 1640 media (Corning, 1004-CV) supplemented with 10% fetal bovine serum (Tissue Culture Biologicals, 35-010-CV) and 1% penicillin and streptomycin (P/S, Corning, 30-002-CI) and seeded overnight in a 96-well plate at a density of 60000 cells/mL. Cells were dosed with inhibitors to a final DMSO 0.5% in triplicate for 37 °C for 72 h. Cellular inhibition of growth was assessed by MTT viability assay according to the manufactures protocol (OZ Biosciences). Parental Ba/F3 cells was a generous gift from the laboratory of Dr. David Weinstock (in 2014), Dr. Pasi Jänne (2020) both of the Dana-Farber Cancer Institute and was used to generate the wildtype EGFR, L858R, and L858R/T790M EGFR mutant Ba/F3 cells[52],[67]. Ba/F3 cells were all cultured in RPMI1640 media with 10% fetal bovine serum and 1% penicillin and streptomycin. The Ba/F3 cell lines were tested negative for Mycoplasma using Mycoplasma Plus PCR Primer Set (Agilent) and were passaged and/or used for no longer than 4 weeks for all experiments. Assay reagents were purchased from MilliporeSigma (Cat# R7017-5G). Ba/F3 cells were plated and treated with increasing concentrations of inhibitors in triplicate for 72 h. Compounds were dispensed using the Tecan D300e Digital Dispenser. […] All experiments were repeated at least 3 times and values were reported as an average with standard deviation.

Ba/F3 cells, L858R EGFR = assay: Ba/F3 resazurin antiproliferative assay; assay type: cell-based; conditions: Mus musculus, BaF3, 72 h, Ba/F3, 72 h; read-out: EGFR EC50, LR
Description: as §1

[3] = system: Ba/F3 cells, wildtype EGFR; assay: Ba/F3 resazurin antiproliferative assay; assay type: cell-based; conditions: Mus musculus, BaF3; Ba/F3, 72 h; read-out: EGFR EC50, wt
Description: as §1

[4] = system: Ba/F3 cells, LR/TM/CS EGFR; assay: Ba/F3 resazurin antiproliferative assay; assay type: cell-based; conditions: Mus musculus, BaF3; Ba/F3, 72 h
Description: as §1

[5] = biological target: T1, EGFR L858R/T790M/C797S (LRTMCS) kinase domain (Homo sapiens, UniProt P00533, C797S/L858R/T790M); assay: HTRF KinEASE-TK kinase activity assay; assay type: biochemical
T1 construct: The EGFR kinase domain (residues 696–1022) was cloned into pTriEx; 6xHis (N, cleaved yes); GST (N, cleaved yes); made in house; host or cells: SF9 insect cells, baculovirus

ACVR2A = ACVR2A (Homo sapiens, UniProt P27037); assay: KINOMEscan; assay type: binding; conditions: 1 μM
Chain of ACVR2A (P27037 20-513): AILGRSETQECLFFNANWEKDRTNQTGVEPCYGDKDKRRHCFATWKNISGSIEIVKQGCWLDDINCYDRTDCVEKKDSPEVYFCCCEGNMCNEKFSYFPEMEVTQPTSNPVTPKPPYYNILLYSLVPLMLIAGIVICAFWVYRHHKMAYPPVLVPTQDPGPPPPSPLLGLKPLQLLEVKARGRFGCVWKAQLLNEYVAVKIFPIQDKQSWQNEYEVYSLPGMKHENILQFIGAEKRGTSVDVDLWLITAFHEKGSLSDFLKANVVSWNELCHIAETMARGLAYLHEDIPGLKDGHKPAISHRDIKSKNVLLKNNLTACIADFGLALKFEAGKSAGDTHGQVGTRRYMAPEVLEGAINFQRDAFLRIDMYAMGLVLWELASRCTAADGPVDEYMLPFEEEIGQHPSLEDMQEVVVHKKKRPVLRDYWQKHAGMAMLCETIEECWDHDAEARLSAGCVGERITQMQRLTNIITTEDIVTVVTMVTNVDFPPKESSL

MAST1 = biological target: T2, MAST1 (Homo sapiens, UniProt Q9Y2H9); assay: KINOMEscan; assay type: binding; conditions: 1 μM
T2 construct: purchased Eurofins DiscoverX Corporation
T2 sequence (Q9Y2H9 whole entry): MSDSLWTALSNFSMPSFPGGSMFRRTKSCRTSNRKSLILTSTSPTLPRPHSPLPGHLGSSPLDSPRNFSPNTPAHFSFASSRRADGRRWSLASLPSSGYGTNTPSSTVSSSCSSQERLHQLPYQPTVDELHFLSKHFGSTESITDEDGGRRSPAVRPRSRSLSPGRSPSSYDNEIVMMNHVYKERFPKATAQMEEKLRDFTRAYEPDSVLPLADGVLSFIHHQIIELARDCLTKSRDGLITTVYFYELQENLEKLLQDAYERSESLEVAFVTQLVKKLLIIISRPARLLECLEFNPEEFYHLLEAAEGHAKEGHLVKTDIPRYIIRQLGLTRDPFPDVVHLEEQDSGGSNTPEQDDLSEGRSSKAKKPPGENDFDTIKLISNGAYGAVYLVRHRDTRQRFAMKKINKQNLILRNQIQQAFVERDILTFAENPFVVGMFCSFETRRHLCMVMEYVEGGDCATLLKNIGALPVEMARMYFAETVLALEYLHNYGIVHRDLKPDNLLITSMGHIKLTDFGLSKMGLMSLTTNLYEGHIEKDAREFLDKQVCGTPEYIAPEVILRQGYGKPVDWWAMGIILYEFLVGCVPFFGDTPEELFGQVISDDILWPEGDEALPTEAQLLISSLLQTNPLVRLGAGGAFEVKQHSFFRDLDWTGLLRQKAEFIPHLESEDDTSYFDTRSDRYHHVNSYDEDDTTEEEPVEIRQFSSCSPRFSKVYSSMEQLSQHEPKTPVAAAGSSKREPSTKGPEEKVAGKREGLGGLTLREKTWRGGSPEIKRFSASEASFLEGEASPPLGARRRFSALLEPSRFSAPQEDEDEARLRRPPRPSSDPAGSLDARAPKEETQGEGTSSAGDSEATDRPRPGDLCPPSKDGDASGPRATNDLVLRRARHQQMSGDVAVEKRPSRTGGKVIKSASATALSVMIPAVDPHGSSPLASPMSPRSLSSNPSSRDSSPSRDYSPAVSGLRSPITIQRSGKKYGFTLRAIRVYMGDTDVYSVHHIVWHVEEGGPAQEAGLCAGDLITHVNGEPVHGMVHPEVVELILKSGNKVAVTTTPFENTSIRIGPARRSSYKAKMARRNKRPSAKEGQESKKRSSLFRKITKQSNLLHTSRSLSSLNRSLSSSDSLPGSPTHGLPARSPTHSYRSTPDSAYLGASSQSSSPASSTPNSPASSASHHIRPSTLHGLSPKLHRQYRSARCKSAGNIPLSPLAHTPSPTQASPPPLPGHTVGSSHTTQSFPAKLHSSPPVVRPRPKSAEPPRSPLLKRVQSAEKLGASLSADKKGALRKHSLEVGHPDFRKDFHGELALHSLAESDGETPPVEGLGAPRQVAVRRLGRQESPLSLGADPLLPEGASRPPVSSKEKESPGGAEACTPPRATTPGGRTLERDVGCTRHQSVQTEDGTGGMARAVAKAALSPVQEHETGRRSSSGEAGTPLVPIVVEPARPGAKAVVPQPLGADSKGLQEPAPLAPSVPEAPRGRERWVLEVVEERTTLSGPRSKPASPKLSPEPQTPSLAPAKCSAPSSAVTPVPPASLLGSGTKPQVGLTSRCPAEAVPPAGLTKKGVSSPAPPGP

KIT(A829P) = biological target: T3, KIT(A829P) (Homo sapiens, UniProt P10721, A829P); assay: KINOMEscan; assay type: binding; conditions: 1 μM
T3 construct: purchased Eurofins DiscoverX (KINOMEscan)
T3 sequence (P10721 26-976 A829P): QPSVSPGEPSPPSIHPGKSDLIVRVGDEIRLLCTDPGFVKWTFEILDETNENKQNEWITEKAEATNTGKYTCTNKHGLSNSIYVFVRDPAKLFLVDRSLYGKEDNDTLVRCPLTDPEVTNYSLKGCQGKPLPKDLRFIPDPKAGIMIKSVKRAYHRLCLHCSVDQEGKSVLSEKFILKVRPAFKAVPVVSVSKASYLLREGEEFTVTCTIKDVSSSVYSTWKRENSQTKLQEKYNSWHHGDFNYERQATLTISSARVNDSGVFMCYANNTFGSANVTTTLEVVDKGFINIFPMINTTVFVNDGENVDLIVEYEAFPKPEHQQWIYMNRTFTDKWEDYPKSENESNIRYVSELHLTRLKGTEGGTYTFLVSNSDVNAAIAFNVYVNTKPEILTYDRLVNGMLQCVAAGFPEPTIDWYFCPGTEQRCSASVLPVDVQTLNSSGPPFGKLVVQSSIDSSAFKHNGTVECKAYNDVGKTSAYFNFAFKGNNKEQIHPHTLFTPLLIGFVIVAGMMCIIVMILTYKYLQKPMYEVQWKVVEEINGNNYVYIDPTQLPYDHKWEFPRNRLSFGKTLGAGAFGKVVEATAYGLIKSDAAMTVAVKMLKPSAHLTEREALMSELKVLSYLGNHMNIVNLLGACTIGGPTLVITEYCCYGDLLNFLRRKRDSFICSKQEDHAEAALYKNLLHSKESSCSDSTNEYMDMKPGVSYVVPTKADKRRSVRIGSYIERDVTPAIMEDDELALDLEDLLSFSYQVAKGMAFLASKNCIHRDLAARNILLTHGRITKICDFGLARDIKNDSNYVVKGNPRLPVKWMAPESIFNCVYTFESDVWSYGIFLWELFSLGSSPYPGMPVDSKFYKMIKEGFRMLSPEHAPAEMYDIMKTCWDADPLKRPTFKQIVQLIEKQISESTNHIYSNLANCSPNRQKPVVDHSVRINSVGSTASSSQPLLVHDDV

ROS1 = ROS1 (Homo sapiens, UniProt P08922); assay: KINOMEscan; assay type: binding; conditions: 1 μM
PAK4 = PAK4 (Homo sapiens, UniProt O96013); assay: KINOMEscan; assay type: binding; conditions: 1 μM
EPHB1 = EPHB1 (Homo sapiens, UniProt P54762); assay: KINOMEscan; assay type: binding; conditions: 1 μM
PRKCH = PRKCH (Homo sapiens, UniProt P24723); assay: KINOMEscan; assay type: binding; conditions: 1 μM
Chain of PRKCH (P24723 whole entry): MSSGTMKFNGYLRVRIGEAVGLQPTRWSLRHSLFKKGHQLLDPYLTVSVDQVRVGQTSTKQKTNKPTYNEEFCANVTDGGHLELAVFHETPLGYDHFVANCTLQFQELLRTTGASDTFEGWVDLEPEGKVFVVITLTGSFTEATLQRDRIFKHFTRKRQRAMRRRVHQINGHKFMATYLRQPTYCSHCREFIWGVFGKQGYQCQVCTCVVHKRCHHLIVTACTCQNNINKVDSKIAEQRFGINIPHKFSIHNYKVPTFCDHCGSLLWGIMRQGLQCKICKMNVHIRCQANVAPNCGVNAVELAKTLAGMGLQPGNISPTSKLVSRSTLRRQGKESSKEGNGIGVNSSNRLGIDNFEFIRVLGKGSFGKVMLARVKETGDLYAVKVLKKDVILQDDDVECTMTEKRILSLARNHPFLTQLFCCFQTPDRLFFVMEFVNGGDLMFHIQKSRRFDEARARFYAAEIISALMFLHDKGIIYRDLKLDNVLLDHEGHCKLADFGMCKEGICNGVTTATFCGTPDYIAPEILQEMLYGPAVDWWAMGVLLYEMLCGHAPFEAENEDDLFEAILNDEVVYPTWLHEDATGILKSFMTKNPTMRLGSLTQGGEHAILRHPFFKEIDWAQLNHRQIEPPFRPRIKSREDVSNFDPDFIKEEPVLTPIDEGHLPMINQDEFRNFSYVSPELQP

PIP5K1C = PIP5K1C (Homo sapiens, UniProt O60331); assay: KINOMEscan; assay type: binding; conditions: 1 μM
CSNK1G2 = biological target: T4, CSNK1G2 (Homo sapiens, UniProt P78368); assay: KINOMEscan; assay type: binding; conditions: 1 μM
T4 construct: purchased Eurofins DiscoverX Corporation

[6] = biological target: T5, ABL1(F317L)-phosphorylated (Homo sapiens, UniProt P00519, F317L); assay: KINOMEscan; assay type: binding; conditions: 1 μM
T5 construct: purchased Eurofins DiscoverX Corporation
T5 sequence (P00519 whole entry F317L): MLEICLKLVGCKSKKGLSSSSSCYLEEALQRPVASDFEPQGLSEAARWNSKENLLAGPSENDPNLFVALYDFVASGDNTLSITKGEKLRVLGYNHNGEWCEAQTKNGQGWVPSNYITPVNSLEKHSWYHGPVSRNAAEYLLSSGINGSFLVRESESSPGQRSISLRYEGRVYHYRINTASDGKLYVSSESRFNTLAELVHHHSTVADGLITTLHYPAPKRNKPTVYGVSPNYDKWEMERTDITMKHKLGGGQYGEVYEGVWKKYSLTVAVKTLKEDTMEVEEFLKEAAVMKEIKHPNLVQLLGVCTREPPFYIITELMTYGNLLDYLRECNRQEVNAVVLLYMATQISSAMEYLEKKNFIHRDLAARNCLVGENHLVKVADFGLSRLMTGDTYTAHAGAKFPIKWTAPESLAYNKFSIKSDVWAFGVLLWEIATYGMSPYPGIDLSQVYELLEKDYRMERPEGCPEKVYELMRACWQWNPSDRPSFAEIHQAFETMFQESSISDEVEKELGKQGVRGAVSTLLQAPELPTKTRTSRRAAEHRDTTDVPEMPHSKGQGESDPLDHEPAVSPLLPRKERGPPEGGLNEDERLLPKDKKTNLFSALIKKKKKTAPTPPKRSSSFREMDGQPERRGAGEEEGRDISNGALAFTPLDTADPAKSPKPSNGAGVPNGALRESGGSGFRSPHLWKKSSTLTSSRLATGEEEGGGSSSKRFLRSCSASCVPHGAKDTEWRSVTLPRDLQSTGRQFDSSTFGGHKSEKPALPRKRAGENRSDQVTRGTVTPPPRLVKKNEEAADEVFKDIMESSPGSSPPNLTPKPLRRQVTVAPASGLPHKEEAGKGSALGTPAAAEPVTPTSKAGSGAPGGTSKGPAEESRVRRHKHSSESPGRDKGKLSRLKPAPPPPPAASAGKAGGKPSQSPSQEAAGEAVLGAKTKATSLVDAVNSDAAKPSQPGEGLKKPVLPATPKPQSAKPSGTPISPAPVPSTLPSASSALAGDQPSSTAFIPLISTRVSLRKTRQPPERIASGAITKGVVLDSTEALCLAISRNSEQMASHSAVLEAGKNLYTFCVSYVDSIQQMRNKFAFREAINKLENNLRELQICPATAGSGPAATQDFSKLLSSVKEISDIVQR

[7] = enzyme 0.02 nM, ATP 100 µM, read-out: Biochemical EGFR IC50, LRTMCS

EC50 [2]: > 10000 nM | EC50 (Ba/F3 cells, L858R EGFR): 5300 nM | EC50 [3]: 5100 nM | EC50 [4]: 6500 nM | activity ([5]; LRTMCS, [Inhibitor] 1.3e-5 nM, read-out: percent inhibition): 93.5% and 92.2% and 100% | activity ([5]; LRTMCS, [Inhibitor] 3.18e-5 nM, read-out: percent inhibition): 90.3% (2×) and 95.9% | activity ([5]; LRTMCS, [Inhibitor] 7.78e-5 nM, read-out: percent inhibition): 71% and 67.2% and 70.8% | activity at 190.4 fM ([5]; LRTMCS, [Inhibitor] 0.000190441 nM, read-out: percent inhibition): 39.1% | activity at 466 fM ([5]; LRTMCS, [Inhibitor] 0.000465979 nM, read-out: percent inhibition): 22.7% | activity at 1.14 pM ([5]; LRTMCS, [Inhibitor] 0.00114018 nM, read-out: percent inhibition): 13.5% | activity at 2.79 pM ([5]; LRTMCS, [Inhibitor] 0.00278983 nM, read-out: percent inhibition): 8.55% | activity at 6.826 pM ([5]; LRTMCS, [Inhibitor] 0.00682626 nM, read-out: percent inhibition): 4.28% | activity at 16.7 pM ([5]; LRTMCS, [Inhibitor] 0.0167028 nM, read-out: percent inhibition): 1.88% | IC50 [5, 7]: 0.064 ± 0.004 nM | IC50 ([5]; read-out: IC50, LRTMCS): 0.051 to 0.064 nM
Compound: CSc1nc(-c2cccc(NC(=O)c3cccc4c3NC(=O)c3ccccc3N4)c2)c(-c2ccnc(NC(C)=O)c2)[nH]1 [Compound 2]
suppression of EGFR phosphorylation ([1]; H1975, 6 h): also effective in H1975 cells, however to a lesser extent than 4

Compound: C=CC(=O)Nc1ccc(OC)c(Nc2cc(-c3[nH]c(CC)nc3-c3cccc(NC(=O)c4cccc5c4NC(=O)c4ccccc4N5)c3)ccn2)c1 [Compound 4]
POC (ACVR2A): 77% of control | concentration suppressing LRTM phosphorylation (pY1068), pERK and pAKT ([1]; H1975, dosed for 6 h): below 1 µM | POC (MAST1): 100% of control | POC (KIT(A829P)): 56% of control | POC (ROS1): 80% of control | POC (PAK4): 89% of control | POC (EPHB1): 92% of control | POC (PRKCH): 69% of control | POC (PIP5K1C): 78% of control | POC (CSNK1G2): 91% of control | POC [6]: 85% of control | EC50 [2]: 770 nM | EC50 (Ba/F3 cells, L858R EGFR): 220 nM | EC50 [3]: 950 nM | EC50 [4]: > 10000 nM | IC50 [5, 7]: 1.8 ± 0.3 nM | IC50 improvement over orthosteric-only 7, LRTMCS ([5]; reversible inhibition): 100 fold
